pEC50: −log10 of the molar value. Where “and” joins values, the source holds several entries; their conditions need not be identical. Identical values can stand only once.
System: THP-1 viability, CellTiter-Glo luminescence, 72 h
Assay: PubChem AID 2252

Row | SMILES | pEC50
1 | Cc1cc(C2CCCCC2)n(O)c(=O)c1 | 6.20
2 | Cc1cccc(Nc2cc(C)c3c(O)cccc3n2)c1C | 5.27
3 | Cc1nc(N)nc(N)c1CCCc1ccc(Cl)c(Cl)c1 | 5.24
4 | COc1cccc(F)c1C(C[N+](=O)[O-])c1c(N)n(C)c(=O)n(C)c1=O (centres undefined) | 5.22
5 | CCCCc1ccc(N/C(N)=N/c2nc(C)cc(C)n2)cc1 | 5.19
6 | OC(CNCCc1ccc(C(F)(F)F)cc1)COC(c1ccccc1)c1ccccc1 (centres undefined) | 4.80
7 | CC(C(=O)c1ccc(-c2ccccc2)cc1)[n+]1cccc(NC(=O)c2ccccc2)c1 (centres undefined) | 4.75
8 | C#CCOCCOCCOCCNc1nc(N2CCN(C(=O)CCCCCCCCCCNC(=O)[C@H](CCCCN)n3cc(C[C@@H](C)CC)nn3)CC2)nc(N2CCN(C(=O)CCCCCCCCCCNC(=O)[C@@H]([C@H](C)O)n3cc(C)nn3)CC2)n1 | 5.21
9 | O=C(CCN1CCN(c2ccccc2)CC1)c1ccc(Br)cc1 | 4.42
10 | OCCNc1nc(Nc2ccccc2)nc2ccccc12 | 5.51
11 | CCCCc1ccc(NC2=NCCCS2)cc1 | 4.67
12 | Cc1ccccc1S(=O)(=O)NNC(=O)C(=O)NNc1ccccn1 | 4.62
13 | O=C1C2=C(Nc3ccccc3SC2c2ccco2)c2ccccc21 (centres undefined) | 4.63
14 | O=C(N/N=C\c1ccc(Cl)s1)c1cccs1 | 4.49
15 | CC1CCC(C(C)C)C(OC(=O)Cn2c(COc3ccccc3)[n+](C)c3ccccc32)C1 (centres undefined) | 5.63
16 | O=C(Nc1ccc(-c2nc3ccccc3[nH]2)cc1)c1ccco1 | 4.98
17 | Cc1cc(N/N=C/c2ccc(O)cc2)c2cccc(C)c2n1 | 5.14
18 | C/C(=N\NC(=O)c1ccc(CN2CCc3ccccc3C2)cc1)c1ccccc1O | 5.10
19 | O=C(CCN1CCN(C(=O)c2ccccc2)CC1)c1ccc(Br)cc1 | 4.39
20 | CCCCCNc1nc(N2CCCC2)c2c(c1C#N)CCN(C)C2 | 4.63
21 | COc1ccccc1Nc1nc(Cl)c(C=O)s1 | 4.67
22 | Cc1ccc2c(c1)C1CN(C)CCC1N2Sc1ccccc1[N+](=O)[O-] (centres undefined) | 4.68

Row | SMILES | pEC50
23 | CCCCCCCCCCOC(=O)Cn1c(COc2cccc(OC)c2)[n+](C)c2ccccc21 | 5.62
24 | CCOc1ccc(Nc2c3ccccc3nc3ccccc23)cc1 | 5.60
25 | Cc1cc([N+](=O)[O-])cc(/C=N\NC(=O)C2COc3ccccc3O2)c1O (centres undefined) | 4.84
26 | O=C(CCN1CCN(c2ccccc2)CC1)N/N=C/c1ccc([N+](=O)[O-])o1 | 4.36
27 | Clc1ccc(-c2cc(C3CCNCC3)[nH]n2)c(Cl)c1 | 4.61
28 | O=C(/C=C/c1ccccc1)NC(=S)NNC(=O)c1cnccn1 | 5.34
29 | CSc1ccc2c(c1)N(CCC1CCCCN1C)c1ccccc1S2 (centres undefined) | 4.89
30 | O=C1c2ccccc2C(=O)N1CCCP(=O)(O)CCc1ccccc1 | > 7.00
31 | COc1ccc(/C=N/Nc2cc(C)nc3c(C)cccc23)cc1 | 5.25
32 | COc1cc([N+](=O)[O-])cc(/C=N/NC(=O)C(C)Nc2cccc(C)c2)c1O (centres undefined) | 4.57
33 | CCn1nnc(NC(=O)c2ccc([N+](=O)[O-])o2)n1 | 4.87
34 | NC1=NC[C@H](c2ccccc2)N1CCc1cc(C(F)(F)F)cc(C(F)(F)F)c1 | 5.42
35 | CCOC(=O)c1cc(-c2ccc(F)cc2)n(CCC(=O)NC2CCN(Cc3ccccc3)CC2)c1C | 4.72
36 | N=c1c2c(n(Cc3ccc(Cl)c(Cl)c3)c3c1CCC3)CCCC2 | 5.33
37 | N=c1n(CCN2CCCCC2)c2ccccc2n1CC(O)c1ccc(Cl)c(Cl)c1 (centres undefined) | 5.34
38 | O=C(Nc1cccc(Cl)c1)Nc1nccs1 | 4.47
39 | CCOC(=O)N1CCN(C(=S)NC(=O)c2ccc(Br)cc2)CC1 | > 7.00
40 | O=c1[nH]cc(F)c(=O)[nH]1 | 5.20
41 | COc1ccc(Nc2nc(NCC3CCCO3)c3ccccc3n2)c(OC)c1 (centres undefined) | 5.03
42 | CCOc1ccc(N2C(=O)CN(O)C=C3N=c4ccccc4=C32)cc1 | 4.41
43 | C/C(=N\N=C(N)N)c1ccc(Cl)c(Cl)c1 | 4.88
44 | Cc1ccc(-c2nc(C(=O)NCCCN(C)C)cc3c2[nH]c2ccccc23)cc1 | 4.97

Row | SMILES | pEC50
45 | Cc1ccc(NC(=O)CS(=O)CC(=O)Nc2ccccc2-c2ccc(C)o2)cc1 (centres undefined) | 4.66
46 | S=C1SCN(Cc2cccnc2)CN1Cc1cccnc1 | 5.41
47 | C[C@H]1c2cccc(O)c2C(O)=C2C(=O)[C@]3(O)C(O)=C(C(N)=O)C(=O)[C@@H](N(C)C)C3[C@@H](O)C21 (some centres undefined) | 4.56
48 | CCCCNCCCOc1cccc(Cl)c1Cl | 4.55
49 | Cc1cc(OCCCCCNCCO)cc(C)c1Cl | 4.67
50 | Cc1ccc(C)c(N/C(N)=N/c2nc(C)cc(C)n2)c1 | 4.57
51 | O=C(C[n+]1cc(-c2ccc(Cl)c(Cl)c2)n2c1CCC2)N1c2ccccc2Sc2ccccc21 | 4.99
52 | Cc1ccc(NC2=C(Cl)C(=O)OC2OC(=O)c2ccco2)c(C)c1 (centres undefined) | 4.55
53 | Cc1cc(NC2CCCCC2)nc(NCc2ccccc2)n1 | 4.83
54 | COc1ccc2[nH]c3c(C)c4ccncc4c(C)c3c2c1 | 5.84
55 | O=c1c2ccccc2nc(-c2cccc(Cl)c2)n1O | 4.74
56 | CC1Cc2ccccc2N1S(=O)(=O)c1cccc(C(=O)N2CC(=O)Nc3ccccc32)c1 (centres undefined) | 4.34
57 | Cc1cc(C)c(NC(=O)C[N+](C)(C)CC(O)COc2cccc3ccccc23)c(C)c1 (centres undefined) | 4.89
58 | CN1CCN(C2=Cc3ccccc3Sc3cc(F)c(Cl)cc32)CC1 | 4.74
59 | COC(=O)C1C(O)C(C)C(O)C(C)/C=C\C=C(/C)C(=O)Nc2c(C)c(OC(C)=O)c3c(c2O)C(=O)C(C)=C2OCOC(=C23)/C(C)=C/C(C)(O)C(O)C(C)C1O (centres undefined) | > 7.00
60 | CCc1ccc(Nc2n[n+](-c3ccccc3)c(-c3c(Cl)cccc3Cl)s2)cc1 | 5.43
61 | Oc1cccc(C=NCc2ccccc2)c1O | 4.41
62 | CN1CCCN(C(c2ccccc2)c2ccc(Cl)cc2)CC1 (centres undefined) | 5.05
63 | COc1cccc(/C=N\NC(=O)Cn2nnc3ccccc32)c1O | 4.84
64 | c1ccc(CNc2nc(-c3ccccn3)nc3ccccc23)cc1 | 5.76
65 | COc1cc(C(=O)O/N=C2\C=CC(=O)C(C)=C2)cc(OC)c1OC | 5.13
66 | O=[N+]([O-])c1ccc(/C=N/NC(=S)Nc2ccc(Cl)cc2Cl)s1 | 4.32

Row | SMILES | pEC50
67 | Cc1c(O)cccc1C(=O)N[C@@H](CSc1ccccc1)[C@H](O)CN1C[C@H]2CCCC[C@H]2C[C@H]1C(=O)NC(C)(C)C | 4.92 and 4.94
68 | CN1CCN(/N=C/c2c3ccccc3c(Cl)c3ccccc23)CC1 | 4.88
69 | Cc1nc(N=Nc2ccc(O)cc2)n[nH]1 | 4.55
70 | C#CCOCCOCCOCCNc1nc(N2CCN(C(=O)CCCCCCCCCCNC(=O)[C@H]([C@@H](C)CC)n3cc(CCCCCN)nn3)CC2)nc(N2CCN(C(=O)CCCCCCCCCCNC(=O)[C@@H]([C@H](C)O)n3cc(C)nn3)CC2)n1 | 4.89
71 | Clc1ccc2[nH]c3c(c2c1)CCc1cn[nH]c1-3 | 4.50
72 | O=C(N/N=C/c1ccc([N+](=O)[O-])s1)c1ccccc1Br | 4.82
73 | Cc1ccc2nsnc2c1S(=O)(=O)NCc1ccc2c(c1)OCO2 | > 7.00
74 | CC1=C([N+](=O)[O-])C(c2cccc(Br)c2)C2=C(N1)c1ccccc1C2=O (centres undefined) | 5.51
75 | COc1ccc(C(=O)NNC(=S)NC(=O)c2ccccc2)cc1 | 5.17
76 | COc1cc2c(cc1OC)[C@H](Cc1ccc(O)cc1)NCC2 | 4.63
77 | Oc1ccc(C[C@H]2CNCCN2CCCCC2CCCCC2)cc1 | 5.05
78 | O=C1c2ccc3c4c(ccc(c24)C(=O)N1c1cccc(O)c1)C(=O)N(c1cccc(O)c1)C3=O | 5.56
79 | CN1C(=O)/C(=C/c2cccc(Cl)c2)Sc2ccc(C(=O)N3CCCC3)cc21 | 4.67
80 | COc1ccc(OCc2n(CC(=O)OC3CC(C)CCC3C(C)C)c3ccccc3[n+]2C)cc1 (centres undefined) | 5.79
81 | Oc1c(I)cc(Cl)c2cccnc12 | 4.83
82 | Cc1ccc2nc(N(CCCN(C)C)C(=O)c3ccc4c(c3)CCCC4)sc2c1 | 5.03
83 | Cc1ccc(OCC(=O)N/N=C\c2c(C)[nH]n(-c3ccccc3)c2=O)c([N+](=O)[O-])c1 | 5.16
84 | C[n+]1c2n(c3ccccc31)N=C(c1ccc(-c3ccccc3)cc1)CS2 | 5.41
85 | OCCNc1nc(Nc2ccc(Br)cc2)nc2ccccc12 | 6.21
86 | CN(C)CCCN1c2ccccc2Sc2ccc(Cl)cc21 | 5.25 and 4.91
87 | Cc1ccc(C(OCC(O)CNCc2ccc(F)cc2)c2ccccc2)cc1 (centres undefined) | 4.89
88 | Cc1ccc(C(=O)NCCN2C3=NC[C@@H](Cc4ccccc4)N3C[C@H]2Cc2ccc(O)cc2)cc1Br | 5.09

Row | SMILES | pEC50
89 | CCc1c(C)nc2cc(-c3cc(OC)cc(OC)c3)nn2c1N1CCCC1 | 4.51
90 | CC(C)(C)c1nc(SCC(=O)NCc2ccco2)c2ccccc2n1 | 4.52
91 | CNC[C@H](Cc1ccccc1)NC[C@@H](Cc1cccc2ccccc12)NCCc1ccc(C)cc1 | 5.40
92 | CCCCCCCCCCCCCCCC[n+]1ccc(C(N)=O)cc1 | 6.17
93 | O=C(CCc1ccccc1)NNC(=S)NC(=O)c1ccccc1 | 4.96
94 | CN(C)CCCN(C(=O)CCc1ccccc1)c1nc2ccc(Br)cc2s1 | 4.87
95 | Fc1ccc(/C=N/Nc2nc3ccccc3[nH]2)cc1F | 4.37
96 | O=[N+]([O-])c1ccc(O)c(/C=N/Nc2ccccn2)c1 | 6.38
97 | CS(=O)(=O)c1ccc2nc(NC(=O)c3ccc(Cl)nc3)sc2c1 | 4.34
98 | C#CCOCCOCCOCCNc1nc(N2CCN(C(=O)CCCCCCCCCCNC(=O)[C@H]([C@@H](C)CC)n3cc(CCCCN=C(N)N)nn3)CC2)nc(N2CCN(C(=O)CCCCCCCCCCNC(=O)[C@H](CCCCN)n3cc(C)nn3)CC2)n1 | 5.45
99 | CCN(CC)CCCCCCCCOC(=O)c1cc(OC)c(OC)c(OC)c1 | 4.32
100 | CC1CCC(C(C)C)C(OC(=O)C[n+]2cc(-c3ccc(Cl)cc3)n3c2CCC3)C1 (centres undefined) | 4.78
101 | Cc1ccc(-n2c(-c3ccc(Br)cc3)c[n+]3c2CCc2ccc4cccnc4c2-3)cc1 | 6.12
102 | Cc1nonc1C(=O)N/N=C/c1ccc([N+](=O)[O-])o1 | 4.39
103 | Cc1ccc(C(C[N+](=O)[O-])c2c(N)n(C)c(=O)n(C)c2=O)cc1 (centres undefined) | 4.58
104 | O=C(CNC(=O)c1cccc(F)c1)N/N=C/c1ccc([N+](=O)[O-])s1 | 4.59
105 | Cc1ccc(C)c(NC(=O)CCC(=O)N/N=C/c2cc([N+](=O)[O-])ccc2O)c1 | 4.75
106 | CC(NCc1ccc(Cl)c(Cl)c1)C(O)c1ccccc1 (centres undefined) | 4.51
107 | Oc1c(Br)cc(Br)cc1C=Nc1cccc2ncccc12 | 4.89
108 | Oc1c(CN2CCOCC2)cc(COCc2ccccc2)c2cccnc12 | 5.65
109 | CN(C)c1ccc(/C=C/c2ccc3ccccc3[n+]2C)cc1 | 6.15

Reference: PubChem BioAssay AID2252 (Southern Research Specialized Biocontainment Screening …, 2010)
